Experimental data published in publication PMC4633044, “Quorum Sensing Peptides Selectively Penetrate the Blood-Brain Barrier” (PLoS ONE, 2015).

Experiments:
[1] = system: mouse brain (blood-brain barrier); conditions: in vivo; for Kin / Kin (text): iv
[2] = system: mouse brain capillaries / parenchyma; conditions: in vivo, iv
[3] = system: mouse brain (blood-brain barrier); conditions: in vivo
[4] = 0, 30, 120 min
[5] = mouse, in vivo, iv
[6] = system: mouse brain (blood-brain barrier); conditions: general value for the positive control; cited from earlier work
Excerpt: To evaluate these transport results, we compared them with the net clearances of oth ...

Row | Substance | Brain distribution volume, Vg [1] | Kin [1] | Kin (text) [1] | Capillary fraction [2] | Capillary fraction, first animal (Fig 3) [2] | Capillary fraction, second animal (Fig 3) [2] | Parenchyma fraction, first animal (Fig 3) [2] | Parenchyma fraction, second animal (Fig 3) [2] | Parenchymal fraction [2] | kout [3] | kout (text) [3] | half-life in human plasma [4] | Tissue distribution (in words) [5] | BBB influx classification (blood-brain barrier) | clearance as % of the plasma flow to the brain [6]
1 | GLWEDLLYNINRYAHYIT [BIP-2, bacteriocin-inducing peptide 2] | 18.22 ± 1.43 µL/g | 2.68 ± 0.66 µL/g/min | 2.68 µL/g/min | 23.1% | 23.14% | 23.04% | 76.86% | 76.96% | 76.9% | -0.06 ± 0.02 min⁻¹ | -0.06 ± 0.02 | 5.345 h | strongly accumulated in the liver | low influx | 
2 | SYPGWSW [PhrCACET1] | 54.90 ± 5.75 µL/g | 20.87 ± 7.97 µL/g/min | 20.87 µL/g/min | 15.1% | 13.97% | 16.20% | 86.03% | 83.80% | 84.9% | -0.02 ± 0.04 min⁻¹ | -0.02 ± 0.03 |  |  | very high influx | 
3 | dermorphin [reference compound] | 23.05 ± 1.18 µL/g | 5.26 ± 0.93 µL/g/min | 5.26 μl/(gxmin) | 37.0% |  |  |  |  | 63.0% | -0.11 ± 0.02 min⁻¹ |  |  | mainly distributed in the duodenum, followed by the liver | low influx | about 0.05%
